For test [1], the system named is MOLM-13 cells (human acute myeloid leukemia cells). Kind of test: MOLM-13 Cellular Assay. The format is cell-based. To be noted: Homo sapiens, MOLM-13, 72 h, 72 hours exposure, cell viability by CellTiter-Glo. As to the method: The following assay is referred to herein as the “MOLM-13 Cellular Assay.” MOLM-13 cells (human acute myeloid leukemia cells) were obtained from DSMZ and were maintained in RPMI 1640+Glutamax+25 mM HEPES (Invitrogen, catalog number 72400) supplemented with 10% heat inactivated fetal bovine serum (FBS; Invitrogen, catalog number 16140). The day prior to assay set-up, cells were pelleted, resuspended in fresh media, counted, and cells were plated at 0.4×10^6 cell/mL in a T150 flask. On the day of the assay, cells were pelleted, resuspend in fresh media, counted and seeded at 5,000 cells/well in white opaque 96-well tissue culture treated microplates (Perkin Elmer, catalog number 6005680). Cells were exposed to different concentrations of test compounds at 37° C., 5% CO2 for 72 hours immediately after seeding. Cell viability was acquired on a Perkin Elmer Envision 2104 multilabel reader using the CellTiter-Glo assay (Promega) according to the manufacturer's instructions.
On the technique in general: ATP-based viability assays read luminescence as a measure of living cells.

Test [2] has as its target human DHODH (Homo sapiens (Human), UniProt Q02127). Put plainly: DHODH Enzymatic Assay. The format is biochemical. To be noted: purified human DHODH, DCIP absorbance, end-point mode; read-out: hDHODH IC50. As to the method:
The following assay is referred to herein as the “DHODH Enzymatic Assay.” To detect DHODH enzyme activities, dichloroindophenol (DCIP) is added as the final electron acceptor in the assay. DCIP can accept electrons from the reduced coenzyme Q generated in the assay, or from dihydroorotate (DHO) via FMN by binding presumably to the ubiquinone pocket. DCIP solutions are blue, with an intense absorbance around 600 nm, but becomes colorless upon reduction (J. Biol. Chem. (1986) 261, 11386). The assay buffer contained […], pH 7.5, 150 mM NaCl, 0.5 mM EDTA, and 0.1% Triton X-100 in MilliQ water. Substrate consisting of 20 mM DHO, 5 mM CoQ6, and 1 mM DCIP in assay buffer, initiates the reaction. The assay is run in end-point mode by quenching the reaction with the potent DHODH inhibitor brequinar. Absorbance measurements were obtained using the BMG Phera Star plate-reading spectrophotomer. Purified human DHODH was purchased from Proteros (cat. No. PR-0044). Chemicals were purchased from Sigma-Aldrich, Teknova, and Avanti Polar Lipids. Liquid handling was performed using Labcyte Echo and Formulatrix Tempest.

SMILES strings stand for the structures. Where only a bound is given, the exact number is not on record here.

human DHODH, sequence (Q02127 whole entry): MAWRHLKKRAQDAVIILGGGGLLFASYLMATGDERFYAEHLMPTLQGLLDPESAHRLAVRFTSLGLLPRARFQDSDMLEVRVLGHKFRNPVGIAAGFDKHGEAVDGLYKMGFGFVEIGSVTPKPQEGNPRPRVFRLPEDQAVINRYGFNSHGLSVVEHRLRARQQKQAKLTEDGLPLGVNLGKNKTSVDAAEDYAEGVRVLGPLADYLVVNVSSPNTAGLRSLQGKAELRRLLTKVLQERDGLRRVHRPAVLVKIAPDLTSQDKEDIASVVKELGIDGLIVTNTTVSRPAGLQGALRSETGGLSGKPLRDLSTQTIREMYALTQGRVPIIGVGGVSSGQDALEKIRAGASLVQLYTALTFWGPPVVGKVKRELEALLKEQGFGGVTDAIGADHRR

The IC50 is the midpoint of a concentration-inhibition curve. Regarding `CCn1c(CO)nn(-c2cc3c(C(C)C)cn(-c4cc(OC)ncc4F)c(=O)c3cc2F)c1=O` [Example 91, 6-(4-Ethyl-3-(hydroxymethyl)-5-oxo-4,5-dihydro-1H-1,2,4-triazol-1-yl)-7-fluoro-2-(5-fluoro-2-methoxypyridin-4-yl)-4-isopropylisoquinolin-1(2H)-one], the figures for the IC50 in test [1] and in test [2] were 30 nM and 6.05 nM, respectively.

In the case of `CCn1c(CO)nn(-c2cc3c(C(C)C)cn(-c4csnc4C)c(=O)c3cc2F)c1=O` [Example 131, 6-(4-Ethyl-3-(hydroxymethyl)-5-oxo-4,5-dihydro-1H-1,2,4-triazol-1-yl)-7-fluoro-4-isopropyl-2-(3-methylisothiazol-4-yl)isoquinolin-1(2H)-one], the IC50 in test [1] was 50 nM; in test [2], 33.7 nM.

Take `CCn1c(CO)nn(-c2cc3c(C(C)C)cn(C4CCCCC4)c(=O)c3cc2F)c1=O` [Example 107, 2-Cyclohexyl-6-(4-ethyl-3-(hydroxymethyl)-5-oxo-4,5-dihydro-1H-1,2,4-triazol-1-yl)-7-fluoro-4-isopropylisoquinolin-1(2H)-one]: the IC50 came to 6 nM in test [1] and 2.07 nM in test [2].

As for `CCn1c(CO)nn(-c2cc3c(C(C)C)cn(CC4CC4)c(=O)c3cc2F)c1=O` [Example 115, 2-(Cyclopropylmethyl)-6-(4-ethyl-3-(hydroxymethyl)-5-oxo-4,5-dihydro-1H-1,2,4-triazol-1-yl)-7-fluoro-4-isopropylisoquinolin-1(2H)-one], the half-inhibitory concentration (IC50) was 80 nM in test [1] and 50.9 nM in test [2].

As to `CCn1c(CO)nn(-c2cc3c(C(C)C)cn([C@H]4CCCC[C@H]4C)c(=O)c3cc2F)c1=O` [Example 114, 6-(4-Ethyl-3-(hydroxymethyl)-5-oxo-4,5-dihydro-1H-1,2,4-triazol-1-yl)-7-fluoro-4-isopropyl-2-((1S,2R)-2-methylcyclohexyl)isoquinolin-1(2H)-one], the IC50 in test [1] stood at 3 nM; in test [2] it was 11.6 nM.

For `CCn1c(CO)nn(-c2cc3c(C(C)C)cn(-c4ccncc4C)c(=O)c3cc2F)c1=O` [Example 137, 6-(4-Ethyl-3-(hydroxymethyl)-5-oxo-4,5-dihydro-1H-1,2,4-triazol-1-yl)-7-fluoro-4-isopropyl-2-(3-methylpyridin-4-yl)isoquinolin-1(2H)-one], the half-inhibitory concentration (IC50) came out at 8 nM in test [1] and 8.08 nM in test [2].

With `C=C(C)c1cn(-c2cc(F)ccc2F)c(=O)c2cc(F)c(-n3nc(CO)n(CC)c3=O)cc12` [Example 72, 2-(2,5-Difluorophenyl)-6-(4-ethyl-3-(hydroxymethyl)-5-oxo-4,5-dihydro-1H-1,2,4-triazol-1-yl)-7-fluoro-4-(prop-1-en-2-yl)isoquinolin-1(2H)-one], the half-inhibitory concentration (IC50) turned out to be 2 nM in test [1] and 0.946 nM in test [2].

For the compound `CCn1c(CO)nn(-c2cc3c(C(C)C)cn(-c4c(C)ccnc4OC)c(=O)c3cc2F)c1=O` [Example 50, 6-(4-Ethyl-3-(hydroxymethyl)-5-oxo-4,5-dihydro-1H-1,2,4-triazol-1-yl)-7-fluoro-4-isopropyl-2-(2-methoxy-4-methylpyridin-3-yl)isoquinolin-1(2H)-one], the concentration for half-maximal inhibition (IC50) in test [1] turned out to be 7 nM; in test [2], 2.75 nM.

Consider `CCn1c(CO)nn(-c2cc3c(C(C)C)cn(-c4c(C)cnc(OC)c4Cl)c(=O)c3cc2F)c1=O` [Example 61, 2-(3-Chloro-2-methoxy-5-methylpyridin-4-yl)-6-(4-ethyl-3-(hydroxymethyl)-5-oxo-4,5-dihydro-1H-1,2,4-triazol-1-yl)-7-fluoro-4-isopropylisoquinolin-1(2H)-one], for which the IC50 in test [1] turned out to be 2 nM; in test [2], 0.617 nM.

With `CCn1c(CO)nn(-c2cc3c(C(C)C)cn(-c4cc(O)ncc4C)c(=O)c3cc2F)c1=O` [Example 139, 6-(4-Ethyl-3-(hydroxymethyl)-5-oxo-4,5-dihydro-1H-1,2,4-triazol-1-yl)-7-fluoro-2-(2-hydroxy-5-methylpyridin-4-yl)-4-isopropylisoquinolin-1(2H)-one], the IC50 in test [1] is greater than 100 nM; in test [2] it was 35.4 nM.

Turning to `CCn1c(CO)nn(-c2nc3c([C@H](C)C(F)(F)F)cn(-c4ccccc4C)c(=O)c3cc2F)c1=O` [Example 37, (S)-2-(4-Ethyl-3-(hydroxymethyl)-5-oxo-4,5-dihydro-1H-1,2,4-triazol-1-yl)-3-fluoro-6-(o-tolyl)-8-(1,1,1-trifluoropropan-2-yl)-1,6-naphthyridin-5(6H)-one], the IC50 in test [1] amounted to 3 nM; in test [2], 1.88 nM.

Turning to `CCn1c(CO)nn(-c2cc3c(C(C)C)cn([C@H]4CCC[C@@H](OC)C4)c(=O)c3cc2F)c1=O` (racemic) [Example 127, Racemic 6-(4-Ethyl-3-(hydroxymethyl)-5-oxo-4,5-dihydro-1H-1,2,4-triazol-1-yl)-7-fluoro-4-isopropyl-2-((cis)-3-methoxycyclohexyl)isoquinolin-1(2H)-one], the IC50 in test [1] is greater than 100 nM; in test [2], 181 nM.

For the compound `C=C(C)c1cn(-c2c(Cl)cccc2Cl)c(=O)c2ccc(-n3nc(CO)n(CC)c3=O)cc12` [Example 8, 2-(2,6-Dichlorophenyl)-6-(4-ethyl-3-(hydroxymethyl)-5-oxo-4,5-dihydro-1H-1,2,4-triazol-1-yl)-4-(prop-1-en-2-yl)isoquinolin-1(2H)-one], the results for the half-maximal inhibitory concentration (IC50) in test [1] and in test [2] were 0.7 nM and 0.839 nM, respectively.

As for `CCn1c(CO)nn(-c2cc3c(C(C)C(F)(F)F)nn(-c4ccccc4C)c(=O)c3cc2F)c1=O` (racemic) [Example 55, Racemic 6-(4-Ethyl-3-(hydroxymethyl)-5-oxo-4,5-dihydro-1H-1,2,4-triazol-1-yl)-7-fluoro-2-(o-tolyl)-4-(1,1,1-trifluoropropan-2-yl)phthalazin-1(2H)-one], the IC50 is 0.5 nM in test [1] and 1.2 nM in test [2].

Regarding `CCn1c(CO)nn(-c2ccc3c(=O)n(-c4c(Cl)cccc4Cl)cc(C4(C)CC4)c3c2)c1=O` [Example 7, 2-(2,6-Dichlorophenyl)-6-(4-ethyl-3-(hydroxymethyl)-5-oxo-4,5-dihydro-1H-1,2,4-triazol-1-yl)-4-(1-methylcyclopropyl)isoquinolin-1(2H)-one], the IC50 is 2 nM in test [1] and 0.965 nM in test [2].

In the case of `C=C(C)c1cn(-c2cc(OC)ncc2F)c(=O)c2cc(F)c(-n3nc(CO)n(CC)c3=O)cc12` [Example 85, 6-(4-Ethyl-3-(hydroxymethyl)-5-oxo-4,5-dihydro-1H-1,2,4-triazol-1-yl)-7-fluoro-2-(5-fluoro-2-methoxypyridin-4-yl)-4-(prop-1-en-2-yl)isoquinolin-1(2H)-one], the IC50 in test [1] was 20 nM; in test [2] it was 6.55 nM.

Regarding `C=C(C)c1cn(-c2cc(OC)ccc2F)c(=O)c2cc(F)c(-n3nc(CO)n(CC)c3=O)cc12` [Example 44, 6-(4-Ethyl-3-(hydroxymethyl)-5-oxo-4,5-dihydro-1H-1,2,4-triazol-1-yl)-7-fluoro-2-(2-fluoro-5-methoxyphenyl)-4-(prop-1-en-2-yl)isoquinolin-1(2H)-one], the figures for the half-inhibitory concentration (IC50) in test [1] and in test [2] were 0.7 nM and 2.22 nM, respectively.

For `C=C(C)c1cn(-c2ccccc2Cl)c(=O)c2cc(F)c(-n3nc(CO)n(CC)c3=O)cc12` [Example 45, 2-(2-Chlorophenyl)-6-(4-ethyl-3-(hydroxymethyl)-5-oxo-4,5-dihydro-1H-1,2,4-triazol-1-yl)-7-fluoro-4-(prop-1-en-2-yl)isoquinolin-1(2H)-one], the IC50 stood at 0.3 nM in test [1] and 1.41 nM in test [2].

Take `C=C(C)c1cn(-c2ccccc2C(F)(F)F)c(=O)c2ccc(-n3nc(CO)n(CC)c3=O)cc12` [Example 12, 6-(4-Ethyl-3-(hydroxymethyl)-5-oxo-4,5-dihydro-1H-1,2,4-triazol-1-yl)-4-(prop-1-en-2-yl)-2-(2-(trifluoromethyl)phenyl)isoquinolin-1(2H)-one]: the IC50 in test [1] was 2 nM; in test [2] it was 2.29 nM.

`CCn1c(CO)nn(-c2cc3c(C(C)C)cn(-c4cncnc4C)c(=O)c3cc2F)c1=O` [Example 94, 6-(4-Ethyl-3-(hydroxymethyl)-5-oxo-4,5-dihydro-1H-1,2,4-triazol-1-yl)-7-fluoro-4-isopropyl-2-(4-methylpyrimidin-5-yl)isoquinolin-1(2H)-one]: the IC50 was greater than 100 nM in test [1] and 566 nM in test [2].

Take `CCn1c(CO)nn(-c2ccc3c(=O)n(-c4ccccc4Cl)nc(C(C)C)c3c2)c1=O` [Example 17, 2-(2-Chlorophenyl)-6-(4-ethyl-3-(hydroxymethyl)-5-oxo-4,5-dihydro-1H-1,2,4-triazol-1-yl)-4-isopropylphthalazin-1(2H)-one]: the IC50 was determined as 3 nM in test [1] and 3.21 nM in test [2].

The record behind these values is US11505536B2, “Dihydroorotate dehydrogenase inhibitors” (Janssen Biotech, Inc., priority 2019, dated 2022).
